Columns and labels:
[1] = system: HCC1937; test: normalised viability (% of control), CellTiter-Blue; higher = more viable cells (about 100 = DMSO control); details: incubation time: 72 h
Outline: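 After 72 h on compound-loaded 384-well plates, breast cancer cell lines received 2.5 µl CellTiter-Blue reagent for 2 h at 37 °C. Fluorescence at 560/590 nm was scaled per plate so that vehicle was 100 and a positive kill control was 0. The value stands for normalised viability at a single listed concentration of the series.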

[2] = system: CAL-148; test: normalised viability (% of control), CellTiter-Blue; higher = more viable cells (about 100 = DMSO control); details: 1000 nM; incubation time: 72 h
Experimental: (§1)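 DSRT, CellTiter-Blue viability, 72 h incubation. Signal is normalised to DMSO and benzethonium chloride controls. Value is the normalised response at dose 7.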

[3] = system: CAL-51; test: as above; details: 1000 nM; incubation time: 72 h
Experimental: as §1

[4] = system: CAL-85-1; test: as above; details: 1000 nM; incubation time: 72 h
Experimental: as §1

[5] = system: DU-4475; test: as above; details: 1000 nM; incubation time: 72 h
Experimental: as §1

[6] = system: HDQ-P1; test: as above; details: 1000 nM; incubation time: 72 h
Experimental: as §1

[7] = system: MDA-MB-453; test: as above; details: 1000 nM; incubation time: 72 h
Experimental: as §1

[8] = system: BT-474; test: drug sensitivity score (DSS), CellTiter-Glo (DSS (AUC-based score)); higher = stronger drug effect (viability inhibition or cytotoxicity); extreme values may be limits of the assay; details: incubation time: 72 h
Outline: (§2)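 After 72 h of incubation in 384-well plates with compound at 5 concentrations (10-fold steps, 10,000-fold range set per compound), breast cancer cell lines seeded in 20 µl suspension were read first for CellTox Green fluorescence at 485/520 nm. CellTiter-Glo luminescence was measured next, after 10 min at room temperature. Normalisation on each plate used 0.1 % DMSO and a positive kill control, and the drug sensitivity score was computed from the area under the fitted dose-response curve.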

[9] = system: BT-549; test: as above; details: incubation time: 72 h
Outline: as §2

[10] = system: CAL-120; test: as above; details: incubation time: 72 h
Outline: as §2

[11] = system: CAL-148; test: as above; details: incubation time: 72 h
Outline: as §2

[12] = system: CAL-51; test: as above; details: incubation time: 72 h
Outline: as §2

[13] = system: CAL-85-1; test: as above; details: incubation time: 72 h
Outline: as §2

[14] = system: DU-4475; test: as above; details: incubation time: 72 h
Outline: as §2

[15] = system: HCC1143; test: as above; details: incubation time: 72 h
Outline: as §2

[16] = system: HCC1599; test: as above; details: incubation time: 72 h
Outline: as §2

[17] = system: HCC1937; test: as above; details: incubation time: 72 h
Outline: as §2

[18] = system: HDQ-P1; test: as above; details: incubation time: 72 h
Outline: as §2

[19] = system: Hs578T; test: as above; details: incubation time: 72 h
Outline: as §2

[20] = system: MCF-10A; test: as above; details: incubation time: 72 h
Outline: as §2

[21] = system: MDA-MB-231; test: as above; details: incubation time: 72 h
Outline: as §2

[22] = system: MDA-MB-436; test: as above; details: incubation time: 72 h
Outline: as §2

[23] = system: MDA-MB-453; test: as above; details: incubation time: 72 h
Outline: as §2

[24] = system: MDA-MB-468; test: as above; details: incubation time: 72 h
Outline: as §2

[25] = system: MFM-223; test: as above; details: incubation time: 72 h
Outline: as §2

[26] = system: SK-BR-3; test: as above; details: incubation time: 72 h
Outline: as §2

Row | SMILES | normalised viability ([1]; 10 nM) | normalised viability ([1]; 1000 nM) | normalised viability ([1]; 10000 nM) | normalised viability [2] | normalised viability [3] | normalised viability [4] | normalised viability [5] | normalised viability [6] | normalised viability [7] | drug sensitivity score [8] | drug sensitivity score [9] | drug sensitivity score [10] | drug sensitivity score [11] | drug sensitivity score [12] | drug sensitivity score [13] | drug sensitivity score [14] | drug sensitivity score [15] | drug sensitivity score [16] | drug sensitivity score [17] | drug sensitivity score [18] | drug sensitivity score [19] | drug sensitivity score [20] | drug sensitivity score [21] | drug sensitivity score [22] | drug sensitivity score [23] | drug sensitivity score [24] | drug sensitivity score [25] | drug sensitivity score [26]
1 | Nc1nc2[nH]cc(CCc3ccc(C(=O)N[C@@H](CCC(=O)O)C(=O)O)cc3)c2c(=O)[nH]1 [Pemetrexed] | 89% | 93.4% | 85.5% | 115% | 102% | 72.3% | 93.9% | 94.8% | 104% | 9.78 | 0 | 1.52 | 0 | 13.7 | 13.4 | 0 | 0 | 0 | 8.27 | 2.5 | 23.6 | 0 | 6.23 | 5.36 | 0 | 1.37 | 0 | 11
2 | COc1cc([C@@H]2c3cc4c(cc3[C@@H](O[C@@H]3O[C@@H]5CO[C@@H](c6cccs6)O[C@H]5[C@H](O)[C@H]3O)[C@H]3COC(=O)[C@H]23)OCO4)cc(OC)c1O [Teniposide] | 82.3% | 21% | 18.8% | 30.3% | 24.4% | 64.6% | 5.16% | 82.3% | 73.1% | 11.7 | 16.1 | 6.56 | 15.7 | 12.1 | 10.3 | 19.4 | 12 | 19 | 6.71 | 4.15 | 7.63 | 0 | 8.09 | 16.8 | 0 | 13.5 | 7.72 | 20.3
3 | COc1cc2nccc(Oc3ccc(NC(=O)Nc4cc(C)on4)c(Cl)c3)c2cc1OC [Tivozanib] | 127% | 88.2% | 63% | 98.7% | 90.3% | 98.3% | 124% | 72.5% | 91.7% | 0 | 0 | 0 | 0 | 0 | 0 | 0 | 0 | 0 | 1.42 | 1.67 | 0 | 1.39 | 2.77 | 0 | 2.71 | 0 | 7.56 | 0
4 | CC1=C(/C=C/C(C)=C/C=C/C(C)=C/C(=O)O)C(C)(C)CCC1 [Tretinoin] | 106% | 80.6% | 88.1% | 81.2% | 93.2% | 82.2% | 102% | 109% | 117% | 0 | 0 | 0 | 2.48 | 0 | 0 | 0 | 0 | 0.765 | 0 | 0 | 1.26 | 4.05 | 1.34 | 0 | 2.34 | 2.13 | 0 | 7.99
5 | Oc1ncc(N(CCCl)CCCl)c(O)n1 [Uracil mustard] | 143% | 82.4% | 66.7% | 111% | 89.6% | 93.8% | 96.2% | 117% | 101% | 0 | 0 | 0 | 0 | 0 | 0 | 0 | 0 | 0 | 0 | 0 | 0 | 0 | 0 | 0 | 0 | 0 | 0 | 0
6 | CCCCC(=O)OCC(=O)[C@]1(O)Cc2c(O)c3c(c(O)c2[C@@H](O[C@H]2C[C@H](NC(=O)C(F)(F)F)[C@H](O)[C@H](C)O2)C1)C(=O)c1c(OC)cccc1C3=O [Valrubicin] | 96.5% | 30.7% | 19.7% | 2.49% | 23.1% | 61.3% | 2.39% | 58% | 55.7% | 3.82 | 9.05 | 0 | 13.8 | 16.8 | 4.91 | 11.5 | 8.06 | 2.29 | 4.28 | 5.59 | 5.56 | 8.72 | 3.05 | 9.03 | 2.44 | 11.1 | 1.28 | 12.4
7 | CCCS(=O)(=O)Nc1ccc(F)c(C(=O)c2c[nH]c3ncc(-c4ccc(Cl)cc4)cc23)c1F [Vemurafenib] | 109% | 101% | 67.7% | 93.9% | 93.2% | 83.8% | 25.6% | 90.5% | 87.2% | 0.633 | 0 | 0 | 0 | 2.75 | 0.555 | 14.1 | 0 | 0 | 0 | 0 | 0 | 0 | 0 | 0 | 0 | 0 | 0 | 0
